Source: US8916551B2, “Heterocyclic compound and use thereof” (Takeda Pharmaceutical Company Limited, priority 2010, dated 2014)

Assays:
[1] = target: T1, AMPA receptor (human GluR1 flip/stargazin expressed in CHO-K1 cells) (Homo sapiens, UniProt P42261); experiment: AMPA receptor function enhancing activity using calcium influx as index; type: cell-based; conditions: 100% = 3 mM glutamic acid + 300 μM cyclothiazide, 0% = 3 mM glutamic acid only
T1 construct: expressed in transfected cells; host or cells: CHO-K1
In short: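 CHO-K1 clone stably co-expressing human GluR1 flip and stargazin, loaded with Calcium 4 dye plus probenecid. Compound at 30 μM was added with glutamate (3 mM final) and fluorescence change followed over 3 min. Activity is expressed as % of the 3 mM glutamate plus 300 μM cyclothiazide response, with glutamate alone as 0%.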

[2] = test compound 30 μM with 3 mM glutamic acid, change in fluorescence level in 3 min
[3] = test compound 30 μM with glutamic acid final 3 mM, change in fluorescence in 3 min

T1 sequence (P42261 19-906 isoform P42261-2 limits assumed): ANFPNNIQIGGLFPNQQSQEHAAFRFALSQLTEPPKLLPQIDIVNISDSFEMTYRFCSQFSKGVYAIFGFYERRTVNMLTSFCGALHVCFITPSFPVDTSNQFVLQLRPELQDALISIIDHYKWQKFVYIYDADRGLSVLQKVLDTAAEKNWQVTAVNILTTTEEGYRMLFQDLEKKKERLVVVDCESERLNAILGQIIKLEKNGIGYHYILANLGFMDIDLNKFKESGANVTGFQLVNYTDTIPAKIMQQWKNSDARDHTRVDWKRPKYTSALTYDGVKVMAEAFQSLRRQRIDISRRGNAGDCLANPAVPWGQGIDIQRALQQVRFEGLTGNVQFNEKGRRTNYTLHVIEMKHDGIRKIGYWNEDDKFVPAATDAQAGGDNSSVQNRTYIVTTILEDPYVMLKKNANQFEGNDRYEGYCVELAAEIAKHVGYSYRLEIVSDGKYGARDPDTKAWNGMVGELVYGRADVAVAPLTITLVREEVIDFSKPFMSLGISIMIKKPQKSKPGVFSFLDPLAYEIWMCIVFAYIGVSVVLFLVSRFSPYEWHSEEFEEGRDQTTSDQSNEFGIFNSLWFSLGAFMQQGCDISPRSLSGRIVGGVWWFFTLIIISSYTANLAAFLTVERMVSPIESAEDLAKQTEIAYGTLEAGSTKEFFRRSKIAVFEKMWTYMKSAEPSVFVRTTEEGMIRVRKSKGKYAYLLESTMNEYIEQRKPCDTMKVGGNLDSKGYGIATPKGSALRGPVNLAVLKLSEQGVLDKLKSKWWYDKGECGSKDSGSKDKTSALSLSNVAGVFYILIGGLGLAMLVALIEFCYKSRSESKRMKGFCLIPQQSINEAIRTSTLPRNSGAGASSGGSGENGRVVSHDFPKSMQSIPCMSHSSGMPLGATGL
T1 sequence (Q9Y698 whole entry partner): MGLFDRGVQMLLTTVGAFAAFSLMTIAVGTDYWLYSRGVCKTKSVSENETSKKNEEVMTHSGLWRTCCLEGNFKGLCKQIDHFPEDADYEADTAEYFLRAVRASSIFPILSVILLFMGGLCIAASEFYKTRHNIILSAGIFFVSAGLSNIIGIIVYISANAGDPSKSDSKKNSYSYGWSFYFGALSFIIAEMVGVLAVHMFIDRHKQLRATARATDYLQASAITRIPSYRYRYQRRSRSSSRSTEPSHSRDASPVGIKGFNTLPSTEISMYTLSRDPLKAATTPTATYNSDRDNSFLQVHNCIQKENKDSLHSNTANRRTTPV

Row | SMILES | melting point [°C] | activity (%) [1, 2] [%] | activity (%) [1, 3] [%]
1 | O=S1(=O)CCN2CCCC(c3ccc(Oc4ccc(C(F)(F)F)cc4)cc3)C2=N1 (stereo not shown) [Example 232, 9-{4-[4-(trifluoromethyl)phenoxy]phenyl}-3,4,6,7,8,9-hexahydropyrido[2,1-c][1,2,4]thiadiazine 2,2-dioxide] | 174 to 176 | 60 | –
2 | O=S1(=O)CCN2CCCC(c3ccc(-c4ccccc4)cc3)C2=N1 (stereo not shown) [Example 65, 9-biphenyl-4-yl-3,4,6,7,8,9-hexahydropyrido[2,1-c][1,2,4]thiadiazine 2,2-dioxide] | 224 to 227 | – | 78
3 | Cc1ccc(Oc2ccc(C3=CC=CN4CCS(=O)(=O)N=C34)cc2)cc1 [Example 107, 9-[4-(4-methylphenoxy)phenyl]-3,4-dihydropyrido[2,1-c][1,2,4]thiadiazine 2,2-dioxide] | 248 to 249 | – | 69
4 | O=S1(=O)CCN2C=C(Cl)C=C(c3ccc(Oc4ccnc(C(F)(F)F)c4)cc3)C2=N1 [Example 79, 7-chloro-9-(4-{[2-(trifluoromethyl)pyridin-4-yl]oxy}phenyl)-3,4-dihydropyrido[2,1-c][1,2,4]thiadiazine 2,2-dioxide] | 239 to 240 | – | 90
5 | COc1cccc(Oc2ccc([C@@H]3CCCN4CCS(=O)(=O)N=C34)cc2)c1 [Example 219, (9S)-9-[4-(3-methoxyphenoxy)phenyl]-3,4,6,7,8,9-hexahydropyrido[2,1-c][1,2,4]thiadiazine 2,2-dioxide] | 139 to 140 | 83 | –
6 | Cc1ccc(C(F)(F)c2ccc(C3CCCN4CCS(=O)(=O)N=C34)cc2)cc1 (stereo not shown) [Example 137, 9-{4-[difluoro(4-methylphenyl)methyl]phenyl}-3,4,6,7,8,9-hexahydropyrido[2,1-c][1,2,4]thiadiazine 2,2-dioxide] | 190 to 191 | – | 61
7 | O=S1(=O)CCN2C=C(Cl)C=C(c3ccc(Oc4ccccc4)cc3)C2=N1 [Example 81, 7-chloro-9-(4-phenoxyphenyl)-3,4-dihydropyrido[2,1-c][1,2,4]thiadiazine 2,2-dioxide] | 248 to 249 | – | 86
8 | O=S1(=O)CCN2C=C(Cl)C=C(c3ccc(Oc4ncccc4C(F)(F)F)cc3)C2=N1 [Example 78, 7-chloro-9-(4-{[3-(trifluoromethyl)pyridin-2-yl]oxy}phenyl)-3,4-dihydropyrido[2,1-c][1,2,4]thiadiazine 2,2-dioxide] | 264 to 265 | – | 72
9 | CC(C)c1ccc(C2=CC=CN3CCS(=O)(=O)N=C23)cc1 [Example 23, 9-[4-(1-methylethyl)phenyl]-3,4-dihydropyrido[2,1-c][1,2,4]thiadiazine 2,2-dioxide] | 239 to 241 | – | 104
10 | COC1=C(c2ccc(Oc3ccccc3)cc2)C2=NS(=O)(=O)CCN2C=C1 [Example 204, 8-methoxy-9-(4-phenoxyphenyl)-3,4-dihydropyrido[2,1-c][1,2,4]thiadiazine 2,2-dioxide] | 269 to 270 | 70 | –
11 | O=S1(=O)CCN2CCCC(c3ccc(-c4ccccc4)cc3)C2=N1 (stereo not shown) [Example 64, 9-biphenyl-4-yl-3,4,6,7,8,9-hexahydropyrido[2,1-c][1,2,4]thiadiazine 2,2-dioxide] | 220 to 222 | – | 73
12 | O=S1(=O)CCN2C=C(F)C=C(c3ccc(Oc4ccccc4)cc3)C2=N1 [Example 206, 7-fluoro-9-(4-phenoxyphenyl)-3,4-dihydropyrido[2,1-c][1,2,4]thiadiazine 2,2-dioxide] | 91.9 to 92 | 84 | –
13 | O=S1(=O)CCN2CCC[C@@H](c3ccc(Oc4cc(F)c(F)c(F)c4)cc3)C2=N1 [Example 227, (9S)-9-[4-(3,4,5-trifluorophenoxy)phenyl]-3,4,6,7,8,9-hexahydropyrido[2,1-c][1,2,4]thiadiazine 2,2-dioxide] | 180 to 181 | 68 | –
14 | O=S1(=O)CCN2CCCC(c3ccc(Oc4ccc(Cl)c(Cl)c4)cc3)C2=N1 (stereo not shown) [Example 151, 9-[4-(3,4-dichlorophenoxy)phenyl]-3,4,6,7,8,9-hexahydropyrido[2,1-c][1,2,4]thiadiazine 2,2-dioxide] | 195 to 197 | 67 | –
15 | O=S1(=O)CCN2CCC[C@@H](c3ccc(Oc4ccccc4)cc3)C2=N1 [Example 63, (9S)-9-(4-phenoxyphenyl)-3,4,6,7,8,9-hexahydropyrido[2,1-c][1,2,4]thiadiazine 2,2-dioxide] | 174 to 175 | – | 77
16 | CCc1ccc(Oc2ccc([C@@H]3CCCN4CCS(=O)(=O)N=C34)cc2)cc1 [Example 218, (9S)-9-[4-(4-ethylphenoxy)phenyl]-3,4,6,7,8,9-hexahydropyrido[2,1-c][1,2,4]thiadiazine 2,2-dioxide] | 156 to 157 | 74 | –
17 | O=S1(=O)CCN2C=CC=C(c3ccc(Oc4ccccc4)nc3)C2=N1 [Example 191, 9-(6-phenoxypyridin-3-yl)-3,4-dihydropyrido[2,1-c][1,2,4]thiadiazine 2,2-dioxide] | 244 to 245 | 74 | –
18 | O=S1(=O)CCN2C=CC=C(c3ccc(Oc4ccc(O)cc4)cc3)C2=N1 [Example 198, 4-[4-(2,2-dioxido-3,4-dihydropyrido[2,1-c][1,2,4]thiadiazin-9-yl)phenoxy]phenol] | 289 to 290 | 87 | –
19 | Cc1cc(F)ccc1Oc1ccc(C2=CC=CN3CCS(=O)(=O)N=C23)cc1 [Example 143, 9-[4-(4-fluoro-2-methylphenoxy)phenyl]-3,4-dihydropyrido[2,1-c][1,2,4]thiadiazine 2,2-dioxide] | 240 to 242 | 76 | –
20 | O=S1(=O)CCN2C=CC=C(c3ccc(Oc4ccc(Cl)cc4)cc3)C2=N1 [Example 147, 9-[4-(4-chlorophenoxy)phenyl]-3,4-dihydropyrido[2,1-c][1,2,4]thiadiazine 2,2-dioxide] | 232 to 234 | 70 | –
21 | O=S1(=O)CCN2CCCC(c3ccc(Oc4ccc(C(F)(F)F)cc4)cc3)C2=N1 (stereo not shown) [Example 125, 9-{4-[4-(trifluoromethyl)phenoxy]phenyl}-3,4,6,7,8,9-hexahydropyrido[2,1-c][1,2,4]thiadiazine 2,2-dioxide] | 191 to 193 | – | 53
22 | O=S1(=O)CCN2C=CN=C(c3ccc(OC4CCCCC4)cc3)C2=N1 [Example 68, 9-[4-(cyclohexyloxy)phenyl]-3,4-dihydropyrazino[2,1-c][1,2,4]thiadiazine 2,2-dioxide] | 239 to 240 | – | 77

Now from value to compound:

Row | melting point [°C] | activity (%) [1, 2] [%] | activity (%) [1, 3] [%] | SMILES
23 | 315 to 316 | – | 78 | O=S1(=O)CCN2C=CC=C(c3ccc(-c4ccccc4)cc3)C2=N1 [Example 14, 9-biphenyl-4-yl-3,4-dihydropyrido[2,1-c][1,2,4]thiadiazine 2,2-dioxide]
24 | 165 to 167 | 74 | – | O=S1(=O)CCN2CCCC(c3ccc(Oc4cccc(Cl)c4)cc3)C2=N1 (stereo not shown) [Example 201, 9-[4-(3-chlorophenoxy)phenyl]-3,4,6,7,8,9-hexahydropyrido[2,1-c][1,2,4]thiadiazine 2,2-dioxide]
25 | 266 to 267 | 79 | – | O=S1(=O)CCN2C=CC=C(c3ccc(Oc4ccc(F)cc4)cc3)C2=N1 [Example 199, 9-[4-(4-fluorophenoxy)phenyl]-3,4-dihydropyrido[2,1-c][1,2,4]thiadiazine 2,2-dioxide]
26 | 226 to 227 | 53 | – | O=S1(=O)CCN2CCCC(c3ccc(C(F)(F)F)cc3)C2=N1 (stereo not shown) [Example 175, 9-[4-(trifluoromethyl)phenyl]-3,4,6,7,8,9-hexahydropyrido[2,1-c][1,2,4]thiadiazine 2,2-dioxide]
27 | 239 to 240 | 79 | – | CC(C)Oc1ccc(C2=CC=CN3CCS(=O)(=O)N=C23)cc1Cl [Example 208, 9-[3-chloro-4-(1-methylethoxy)phenyl]-3,4-dihydropyrido[2,1-c][1,2,4]thiadiazine 2,2-dioxide]
28 | 158 to 159 | 74 | – | Cc1cc(F)cc(Oc2ccc([C@@H]3CCCN4CCS(=O)(=O)N=C34)cc2)c1 [Example 236, (9S)-9-[4-(3-fluoro-5-methylphenoxy)phenyl]-3,4,6,7,8,9-hexahydropyrido[2,1-c][1,2,4]thiadiazine 2,2-dioxide]
29 | 117 to 118 | 89 | – | CC(F)(F)c1cccc(Oc2ccc(C3CCCN4CCS(=O)(=O)N=C34)cc2)c1 (stereo not shown) [Example 157, 9-{4-[3-(1,1-difluoroethyl)phenoxy]phenyl}-3,4,6,7,8,9-hexahydropyrido[2,1-c][1,2,4]thiadiazine 2,2-dioxide]
30 | 92 to 92.5 | 78 | – | CC1=CN2CCS(=O)(=O)N=C2C(c2ccc(Oc3ccccc3)cc2)=N1 [Example 207, 7-methyl-9-(4-phenoxyphenyl)-3,4-dihydropyrazino[2,1-c][1,2,4]thiadiazine 2,2-dioxide]
31 | 272 to 274 | 80 | – | O=S1(=O)CCN2C=CC=C(c3ccc(OC4CCCCC4)cc3)C2=N1 [Example 182, 9-[4-(cyclohexyloxy)phenyl]-3,4-dihydropyrido[2,1-c][1,2,4]thiadiazine 2,2-dioxide]
32 | 170 to 171 | 71 | – | Cc1ccc(Oc2ccc([C@@H]3CCCN4CCS(=O)(=O)N=C34)cc2)cc1C [Example 216, (9S)-9-[4-(3,4-dimethylphenoxy)phenyl]-3,4,6,7,8,9-hexahydropyrido[2,1-c][1,2,4]thiadiazine 2,2-dioxide]
